Earlier results on 1 molecule are cited in US20070184105A1, “COMSPOSITION FOR STABLIZING EPIGALLOCATECHIN GALLATE (EGCG) IN WATER PHASE AND PREPARATION METHOD THEREOF” (DPI SOLUTIONS, INC., priority 2004, published 2007).

Turning to `O=C(O[C@@H]1Cc2c(O)cc(O)cc2O[C@@H]1c1cc(O)c(O)c(O)c1)c1cc(O)c(O)c(O)c1` [EGCG, epigallocatechin gallate], the “amount of EGCG that can be dissolved in water phase” value is recorded as “about 4%”.
